Reference: patent EP4806891A1 (Kangbaida (Sichuan) Biotechnology Co., Ltd., priority 2023, dated 2025)

target: T1, HEK-Blue-hTLR8 cells (Homo sapiens, UniProt Q9NR97); experiment: HEK-Blue-hTLR8 cell inhibition assay; type: cell-based; settings: R848 3 µM, 16 h, OD 620 nm, read-out: TLR8 IC50
T1 construct: expressed in transfected cells; host or cells: HEK-Blue-hTLR8 cells (HEK293-derived reporter line)
T1 sequence (Q9NR97 27-1041): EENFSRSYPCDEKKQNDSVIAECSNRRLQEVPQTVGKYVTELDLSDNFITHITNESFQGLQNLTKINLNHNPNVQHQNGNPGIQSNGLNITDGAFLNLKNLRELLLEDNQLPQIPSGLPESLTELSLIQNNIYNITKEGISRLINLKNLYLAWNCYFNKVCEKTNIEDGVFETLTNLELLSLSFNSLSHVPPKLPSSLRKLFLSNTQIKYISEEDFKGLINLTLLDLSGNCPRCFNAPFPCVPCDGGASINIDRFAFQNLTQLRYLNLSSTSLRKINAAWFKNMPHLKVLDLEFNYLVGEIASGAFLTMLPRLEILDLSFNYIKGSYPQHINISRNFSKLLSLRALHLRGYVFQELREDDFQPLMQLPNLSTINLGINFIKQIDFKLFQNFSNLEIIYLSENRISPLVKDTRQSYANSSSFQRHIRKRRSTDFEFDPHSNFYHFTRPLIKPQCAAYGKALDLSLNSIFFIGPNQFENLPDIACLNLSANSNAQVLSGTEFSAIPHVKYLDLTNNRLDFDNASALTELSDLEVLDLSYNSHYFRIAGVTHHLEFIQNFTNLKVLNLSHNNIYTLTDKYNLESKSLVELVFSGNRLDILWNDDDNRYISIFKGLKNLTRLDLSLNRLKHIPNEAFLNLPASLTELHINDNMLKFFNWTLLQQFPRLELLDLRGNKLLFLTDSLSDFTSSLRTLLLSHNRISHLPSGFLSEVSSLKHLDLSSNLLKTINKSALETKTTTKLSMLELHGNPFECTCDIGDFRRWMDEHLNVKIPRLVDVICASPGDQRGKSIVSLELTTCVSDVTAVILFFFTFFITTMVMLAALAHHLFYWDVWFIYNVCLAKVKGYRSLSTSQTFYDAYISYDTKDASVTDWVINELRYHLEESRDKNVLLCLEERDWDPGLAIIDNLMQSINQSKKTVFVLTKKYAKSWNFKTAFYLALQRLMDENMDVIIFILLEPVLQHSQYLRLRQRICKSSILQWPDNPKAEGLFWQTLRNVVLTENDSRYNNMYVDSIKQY
Outline: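 Cells were pre-incubated 4 h, then co-treated 16 h at 37 °C with compound (10 doses, 0.5–10000 nM final) plus R848 (0.8 µM for TLR7, 3 µM for TLR8) or ODN2006 (1 µM, TLR9). Reporter OD620 gave inhibition relative to DMSO blank and agonist-only controls; IC50 came from curve fitting.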

`CN1CC(Cc2nnc([C@]34CN(c5ccc(C#N)c6ncccc56)C[C@@]3(C(F)(F)F)C4)o2)C1` [Compound 36, 5-((1S,5R)-1-(5-((1-methylazetidin-3-yl)methyl)-1,3,4-oxadiazol-2-yl)-5-(trifluoromethyl)-3-azabicyclo[3.1.0]hexan-3-yl)quinoline-8-carbonitrile] and `CN1CCC(Cc2nnc([C@]34CN(c5ccc(C#N)c6ncccc56)C[C@@]3(C(F)(F)F)C4)o2)CC1` [Compound 37, 5-((1S,5R)-1-(5-((1-methylpiperidin-4-yl)methyl)-1,3,4-oxadiazol-2-yl)-5-(trifluoromethyl)-3-azabicyclo[3.1.0]hexan-3-yl)quinoline-8-carbonitrile] cannot be ordered by IC50: under 100 nM for the first, under 100 nM for the second.

`N#Cc1ccc(N2C[C@]3(c4nnc(C5CNCC(F)C5)o4)C[C@]3(C(F)(F)F)C2)c2cccnc12` (stereo partly drawn) [Compound 45, 5-((1R,5S)-1-((difluoro-3-methyl)-12-fluoraneyl)-5-(5-(5-fluoropiperidin-3-yl)-1,3,4-oxadiazol-2-yl)-3-azabicyclo[3.1.0]hexan-3-yl)quinoline-8-carbonitrile] and `N#Cc1ccc(N2C[C@]3(c4nnc(C5CC6(CNC6)C5)o4)C[C@]3(C(F)(F)F)C2)c2cccnc12` [Compound 18, 5-((1S,5R)-1-(5-(2-azaspiro[3.3]heptan-6-yl)-1,3,4-oxadiazol-2-yl)-5-(trifluoromethyl)-3-azabicyclo[3.1.0]hexan-3-yl)quinoline-8-carbonitrile] cannot be ordered by IC50: under 100 nM for the first, under 100 nM for the second.

`NC(=O)CN1CCC(c2nnc([C@]34CN(c5ccc(C(F)(F)F)c6ncccc56)C[C@@]3(C(F)(F)F)C4)o2)CC1` [Compound 77, 2-(4-(5-((1S,5R)-5-(trifluoromethyl)-3-(8-(trifluoromethyl)quinolin-5-yl)-3-azabicyclo[3.1.0]hexan-1-yl)-1,3,4-oxadiazol-2-yl)piperidin-1-yl)acetamide] and `CN1CCC(Oc2nnc([C@]34CN(c5ccc(C(F)(F)F)c6ncccc56)C[C@@]3(C(F)(F)F)C4)o2)CC1` [Compound 92, 2-((1-methylpiperidin-4-yl)oxy)-5-((1S,5R)-5-(trifluoromethyl)-3-(8-(trifluoromethyl)quinolin-5-yl)-3-azabicyclo[3.1.0]hexan-1-yl)-1,3,4-oxadiazole] cannot be ordered by IC50: under 100 nM for the first, under 100 nM for the second.

`CN1CCC(F)(c2nnc([C@]34CN(c5ccc(C#N)c6ncccc56)C[C@@]3(C(F)(F)F)C4)o2)C1` (stereo partly drawn) [Compound 47, 5-((1S,5R)-1-(5-(3-fluoro-1-methylpyrrolidin-3-yl)-1,3,4-oxadiazol-2-yl)-5-(trifluoromethyl)-3-azabicyclo[3.1.0]hexan-3-yl)quinoline-8-carbonitrile] and `N#Cc1ccc(N2C[C@]3(c4nnc(N5CCOCC5)o4)C[C@]3(C(F)(F)F)C2)c2cccnc12` [Compound 27, 5-((1S,5R)-1-(5-morpholino-1,3,4-oxadiazol-2-yl)-5-(trifluoromethyl)-3-azabicyclo[3.1.0]hexan-3-yl)quinoline-8-carbonitrile] cannot be ordered by IC50: under 100 nM for the first, under 1000 nM for the second.

`CN1CCC(n2cc([C@]34CN(c5ccc(C#N)c6ncccc56)C[C@@]3(C(F)(F)F)C4)nn2)CC1` [Compound 71, 5-((1S,5R)-1-(1-(1-methylpiperidin-4-yl)-1H-1,2,3-triazol-4-yl)-5-(trifluoromethyl)-3-azabicyclo[3.1.0]hexan-3-yl)quinoline-8-carbonitrile] and `N#Cc1ccc(N2C[C@]3(c4nnc([C@H]5CN(CC(N)=O)CCO5)o4)C[C@]3(C(F)(F)F)C2)c2cccnc12` [Compound 56, 2-((R)-2-(5-((1S,5R)-3-(8-cyanoquinolin-5-yl)-5-(trifluoromethyl)-3-azabicyclo[3.1.0]hexan-1-yl)-1,3,4-oxadiazol-2-yl)morpholino)acetamide] cannot be ordered by IC50: under 100 nM for the first, under 100 nM for the second.

Work on `CN1CCC(Oc2nnc([C@]34CN(c5ccc(C#N)c6ncnn56)C[C@@]3(C(F)(F)F)C4)o2)CC1` [Compound 97, 5-((1S,5R)-1-(5-((1-methylpiperidin-4-yl)oxy)-1,3,4-oxadiazol-2-yl)-5-(trifluoromethyl)-3-azabicyclo[3.1.0]hexan-3-yl)-[1,2,4]triazolo[1,5-a]pyridine-8-carbonitrile] yielded an IC50 of under 100 nM.
